As usually defined, the mortality is the percentage killed.

The text below walks through data of patent US20150087622A1, “NEW METHOD OF USE OF A PESTICIDE” (SYNGENTA PARTICIPATIONS AG, priority 2012, published 2015).

One data set has as its system Diabrotica balteata. As to the kind of experiment: Transovarial effects on Diabrotica balteata adults fed on sprayed bean plants (% egg mortality). It counts as in vivo. The following applies: for mortality at 10 ppm / mortality at 25 ppm / mortality at 50 ppm: Diabrotica balteata; for Transovarial effects on treated adults of Diabrotica balteata: at the used dose rates. As for the experimental part: The following IGRs in Table 1 were tested for their transovarial effects on Diabrotica balteata by observing percentage egg mortality.
Bean plants (Phaseolus vulgaris, var. Amata) were treated in an automatic spray chamber (ARO-1) with around 500 l/ha. After drying of the spray deposits, plants were placed in gauze cages and infested with newly hatched (0-24 h old) Diabrotica balteata adults. After seven days, treated plants were removed and replaced by non-treated plants. From day seven to day 38 eggs were collected in three-day intervals, counted and checked on number of hatched larvae (% egg mortality). Percentage egg mortality was calculated as the number of unhatched eggs per total number of eggs laid.

The subject of a further data set is Spodoptera frugiperda. As to the kind of experiment: Foliar spray application on cotton, larval mortality of Spodoptera frugiperda. The conditions noted are these: 4 DAT (days after treatment). It counts as in vivo. The source says:
For example on both Spodoptera frugiperda and Plutella xylostella similar activities were obtained for the same rates: […]

[1] abbreviates: egg laying period 1, read-out: % egg mortality: on egg laying period 1.
[2] abbreviates: egg laying period 2, read-out: % egg mortality: on egg laying period 2.
Where [3] appears, read: egg laying period 3, read-out: % egg mortality: on egg laying period 3.
Setting [4] is: egg laying period 4, read-out: % egg mortality: on egg laying period 4.
The mark [5] stands for this setting: egg laying period 5, read-out: % egg mortality: on egg laying period 5.
[6] abbreviates: egg laying period 6, read-out: % egg mortality: on egg laying period 6.
The mark [7] stands for this setting: egg laying period 7, read-out: % egg mortality: on egg laying period 7.
The mark [8] stands for this setting: egg laying period 8, read-out: % egg mortality: on egg laying period 8.

Read-outs that look alike come from different tables or passages of the source.

Take `O=C(NC(=O)c1c(F)cccc1F)Nc1cc(Cl)c(OC(F)(F)C(F)C(F)(F)F)cc1Cl` (stereo not shown) [Match, Lufenuron]: the “total number of sterilised (unhatched) eggs, considered over the whole test period” value is given as about 20% in the data set on Diabrotica balteata (5 g AI ha^-1), “≈ 25%” in the data set on Diabrotica balteata (12.5 g AI ha^-1) and “≈ 25%” in the data set on Diabrotica balteata (25 g AI ha^-1). In addition, the mortality at 10 ppm was 100% in the data set with Diabrotica balteata (setting [1]); 100% in the data set on Diabrotica balteata (setting [2]); 73% in the data set with Diabrotica balteata (setting [3]); 17% with Diabrotica balteata (setting [4]); 8% with Diabrotica balteata (setting [5]); 9% in the data set with Diabrotica balteata (setting [6]). For the same compound, the mortality at 10 ppm in the data set with Diabrotica balteata (setting [7]) stood at 12%; in the data set with Diabrotica balteata (setting [8]) it was 8%. The mortality at 25 ppm came out at 100% with Diabrotica balteata (setting [1]); 100% in the data set with Diabrotica balteata (setting [2]); 85% in the data set on Diabrotica balteata (setting [3]); 15% in the data set on Diabrotica balteata (setting [4]); 8% with Diabrotica balteata (setting [6]); 9% in the data set with Diabrotica balteata (setting [7]). Further, the mortality at 50 ppm was found to be 100% with Diabrotica balteata (setting [2]); 96% with Diabrotica balteata (setting [3]); 50% with Diabrotica balteata (setting [4]); 40% with Diabrotica balteata (setting [5]); 9% with Diabrotica balteata (setting [6]); 8% with Diabrotica balteata (setting [7]). Moreover, in the data set with Diabrotica balteata (setting [8]), the mortality at 50 ppm amounted to 8%. For the same compound, the “Spray interval” value turned out to be 5 days in the data set with Diabrotica balteata (Rate 5 g AI/ha), 7 days with Diabrotica balteata (Rate 12.5 g AI/ha) and 7 days in the data set with Diabrotica balteata (Rate 25 g AI/ha). In addition, in the data set with Diabrotica balteata, the “Transovarial effects on treated adults of Diabrotica balteata” value (“Transovarial effects on treated adults” below) is listed as “Transovarial effects can be observed”. Besides, the LC50 entry in the data set with Spodoptera frugiperda was “LC50 = 1 ppm”.
For the compound `O=C(NC(=O)c1c(F)cccc1F)Nc1cc(Cl)c(OC(F)(F)C(F)F)c(Cl)c1` [Consult, Hexaflumuron], the mortality at 10 ppm in the data set on Diabrotica balteata (setting [1]) was found to be 75%; with Diabrotica balteata (setting [2]), 36%; in the data set on Diabrotica balteata (setting [3]), 7%; with Diabrotica balteata (setting [4]) it was 8%; in the data set on Diabrotica balteata (setting [5]) it was 9%; in the data set with Diabrotica balteata (setting [6]), 10%. For the same compound, the mortality at 25 ppm was 97% in the data set on Diabrotica balteata (setting [1]); 93% in the data set on Diabrotica balteata (setting [2]); 15% in the data set on Diabrotica balteata (setting [3]); 11% with Diabrotica balteata (setting [4]); 11% in the data set on Diabrotica balteata (setting [6]). The mortality at 50 ppm with Diabrotica balteata (setting [2]) amounted to 92%; in the data set on Diabrotica balteata (setting [3]) it was 15%; in the data set with Diabrotica balteata (setting [4]), 22%; in the data set with Diabrotica balteata (setting [5]) it was 48%; in the data set on Diabrotica balteata (setting [6]), 15%. For the same compound, the “Spray interval (days)” value in the data set with Diabrotica balteata (Rate 5 g AI/ha) is reported as “Insufficient”. The “Spray interval” value in the data set with Diabrotica balteata (Rate 12.5 g AI/ha) and in the data set with Diabrotica balteata (Rate 25 g AI/ha) was 5 days throughout. Further, the “Transovarial effects on treated adults” value with Diabrotica balteata is recorded as “Transovarial effects can be observed”.
In the case of `COc1cccc(C(=O)NN(C(=O)c2cc(C)cc(C)c2)C(C)(C)C)c1C` [Intrepid, Methoxyfenozide], the mortality at 10 ppm with Diabrotica balteata (setting [1]) came out at 7%; with Diabrotica balteata (setting [2]), 8%; with Diabrotica balteata (setting [3]), 9%; in the data set on Diabrotica balteata (setting [4]), 7%. Also, the mortality at 25 ppm in the data set on Diabrotica balteata (setting [1]) was 13%; in the data set on Diabrotica balteata (setting [2]), 13%; with Diabrotica balteata (setting [3]) it was 7%; in the data set on Diabrotica balteata (setting [4]) it was 11%. Further, the mortality at 50 ppm in the data set with Diabrotica balteata (setting [2]) amounted to 14%; in the data set with Diabrotica balteata (setting [3]), 10%; with Diabrotica balteata (setting [4]), 9%. The “Transovarial effects on treated adults” value in the data set on Diabrotica balteata was “transovarially inactive”.
Regarding `O=C(NC(=O)c1c(F)cccc1F)Nc1cc(Cl)c(F)c(Cl)c1F` [Nomolt, Teflubenzuron], the mortality at 10 ppm in the data set with Diabrotica balteata (setting [1]) is 40%; in the data set with Diabrotica balteata (setting [2]), 15%; with Diabrotica balteata (setting [3]), 7%; with Diabrotica balteata (setting [4]), 11%; in the data set on Diabrotica balteata (setting [5]), 8%; in the data set on Diabrotica balteata (setting [6]), 14%. For the same compound, the mortality at 25 ppm in the data set on Diabrotica balteata (setting [1]) is 76%; in the data set with Diabrotica balteata (setting [2]) it was 48%; in the data set on Diabrotica balteata (setting [3]), 34%; in the data set with Diabrotica balteata (setting [4]), 11%; with Diabrotica balteata (setting [6]), 13%. The mortality at 50 ppm in the data set on Diabrotica balteata (setting [2]) worked out at 67%; with Diabrotica balteata (setting [3]), 14%; with Diabrotica balteata (setting [4]), 11%; in the data set with Diabrotica balteata (setting [5]), 13%; with Diabrotica balteata (setting [6]), 10%. Also, the “Spray interval (days)” value in the data set with Diabrotica balteata (Rate 5 g AI/ha) and in the data set with Diabrotica balteata (Rate 12.5 g AI/ha) was “Insufficient” in each case. Further, the “Spray interval” value in the data set on Diabrotica balteata (Rate 25 g AI/ha) was determined as 3 days. In addition, the “Transovarial effects on treated adults” value with Diabrotica balteata was “Transovarial effects can be observed”.
As for `O=C(NC(=O)c1c(F)cccc1F)Nc1ccc(Oc2ccc(C(F)(F)F)cc2Cl)cc1F` [Cascade, Flufenoxuron], the mortality at 10 ppm with Diabrotica balteata (setting [1]) worked out at 69%; in the data set on Diabrotica balteata (setting [2]), 22%; in the data set with Diabrotica balteata (setting [3]) it was 91%; in the data set with Diabrotica balteata (setting [4]), 10%; with Diabrotica balteata (setting [5]) it was 9%; in the data set on Diabrotica balteata (setting [6]) it was 8%. For the same compound, the mortality at 10 ppm in the data set with Diabrotica balteata (setting [7]) and in the data set on Diabrotica balteata (setting [8]) was 8% throughout. In addition, the mortality at 25 ppm with Diabrotica balteata (setting [1]) was found to be 100%; with Diabrotica balteata (setting [2]), 100%; in the data set with Diabrotica balteata (setting [3]), 98%; in the data set with Diabrotica balteata (setting [4]), 64%; in the data set on Diabrotica balteata (setting [6]) it was 14%; with Diabrotica balteata (setting [7]), 9%. Besides, the mortality at 50 ppm in the data set on Diabrotica balteata (setting [2]) came out at 100%; in the data set with Diabrotica balteata (setting [3]), 100%; in the data set with Diabrotica balteata (setting [4]) it was 64%; with Diabrotica balteata (setting [5]), 13%; in the data set on Diabrotica balteata (setting [6]), 6%; with Diabrotica balteata (setting [7]) it was 11%. For the same compound, the mortality at 50 ppm in the data set with Diabrotica balteata (setting [8]) was 9%. Also, the “Spray interval” value in the data set with Diabrotica balteata (Rate 5 g AI/ha), with Diabrotica balteata (Rate 12.5 g AI/ha) and in the data set with Diabrotica balteata (Rate 25 g AI/ha) was 7 days each time. In addition, in the data set with Diabrotica balteata, the “Transovarial effects on treated adults” value is listed as “Transovarial effects can be observed”.
For `O=C(NC(=O)c1c(F)cccc1F)Nc1ccc(Cl)cc1` [Dimilin, Diflubenzuron], the mortality at 10 ppm in the data set on Diabrotica balteata (setting [1]) was found to be 0%; with Diabrotica balteata (setting [2]), 11%; in the data set on Diabrotica balteata (setting [3]), 6%; in the data set on Diabrotica balteata (setting [4]), 10%; in the data set on Diabrotica balteata (setting [5]), 9%; in the data set on Diabrotica balteata (setting [6]) it was 12%. Moreover, the mortality at 25 ppm in the data set with Diabrotica balteata (setting [1]) was 0%; with Diabrotica balteata (setting [2]), 7%; in the data set with Diabrotica balteata (setting [3]) it was 5%; in the data set on Diabrotica balteata (setting [4]), 5%; in the data set with Diabrotica balteata (setting [6]) it was 10%. Besides, the mortality at 50 ppm in the data set on Diabrotica balteata (setting [2]) amounted to 16%; in the data set with Diabrotica balteata (setting [3]) it was 3%; with Diabrotica balteata (setting [4]) it was 5%; in the data set on Diabrotica balteata (setting [5]), 7%; in the data set with Diabrotica balteata (setting [6]) it was 7%; with Diabrotica balteata (setting [7]) it was 8%. Moreover, the “Transovarial effects on treated adults” value in the data set on Diabrotica balteata was “transovarially inactive”.
On to `CCc1ccc(C(=O)NN(C(=O)c2cc(C)cc(C)c2)C(C)(C)C)cc1` [Mimic, Tebufenozide], for which the mortality at 10 ppm with Diabrotica balteata (setting [1]) was found to be 7%; with Diabrotica balteata (setting [2]), 9%; with Diabrotica balteata (setting [3]), 8%; in the data set with Diabrotica balteata (setting [4]), 11%. In addition, the mortality at 25 ppm came out at 9% with Diabrotica balteata (setting [1]), 13% in the data set with Diabrotica balteata (setting [2]), 9% with Diabrotica balteata (setting [3]) and 10% in the data set on Diabrotica balteata (setting [4]). The mortality at 50 ppm with Diabrotica balteata (setting [2]) came to 10%; in the data set with Diabrotica balteata (setting [3]), 10%; with Diabrotica balteata (setting [4]), 13%. For the same compound, in the data set on Diabrotica balteata, the “Transovarial effects on treated adults” value is “transovarially inactive”.
